Like-named read-outs stand apart in the source and are kept apart here.

This is an account of results in US20220409733A1, “COMPOSITIONS AND METHODS FOR TREATING CANCER” (priority 2019, published 2022).

For one experiment, the system named is A2780-CP cells. Nature of the experiment: CCK-8 assay of cDDP cytotoxicity in Pt resistant A2780-CP cells. It counts as cell-based. The note with it: 1 h cDDP exposure. Here is the method:
(§1) FIG. 1B: CCK-8 assay of A2780, A2780-CP and A2780-CP cells pre-incubated for 24 h with APP antisense oligonucleotides (A2780ONS) during a 1 h exposure to increasing concentrations of cDDP.
Background: Tetrazolium dyes change colour on reduction, which living cells bring about.

Another experiment has as its system A2780 cells. Nature of the experiment: CCK-8 assay of cDDP cytotoxicity in parental A2780 cells. Conditions: parental A2780 cell line, 1 h cDDP exposure. The experiment is classed as cell-based. The procedure:
as §1

A further experiment addresses APP (Homo sapiens, UniProt P05067). Conditions: in vivo and in vitro; cited from earlier work.

Chain of APP (P05067 18-770): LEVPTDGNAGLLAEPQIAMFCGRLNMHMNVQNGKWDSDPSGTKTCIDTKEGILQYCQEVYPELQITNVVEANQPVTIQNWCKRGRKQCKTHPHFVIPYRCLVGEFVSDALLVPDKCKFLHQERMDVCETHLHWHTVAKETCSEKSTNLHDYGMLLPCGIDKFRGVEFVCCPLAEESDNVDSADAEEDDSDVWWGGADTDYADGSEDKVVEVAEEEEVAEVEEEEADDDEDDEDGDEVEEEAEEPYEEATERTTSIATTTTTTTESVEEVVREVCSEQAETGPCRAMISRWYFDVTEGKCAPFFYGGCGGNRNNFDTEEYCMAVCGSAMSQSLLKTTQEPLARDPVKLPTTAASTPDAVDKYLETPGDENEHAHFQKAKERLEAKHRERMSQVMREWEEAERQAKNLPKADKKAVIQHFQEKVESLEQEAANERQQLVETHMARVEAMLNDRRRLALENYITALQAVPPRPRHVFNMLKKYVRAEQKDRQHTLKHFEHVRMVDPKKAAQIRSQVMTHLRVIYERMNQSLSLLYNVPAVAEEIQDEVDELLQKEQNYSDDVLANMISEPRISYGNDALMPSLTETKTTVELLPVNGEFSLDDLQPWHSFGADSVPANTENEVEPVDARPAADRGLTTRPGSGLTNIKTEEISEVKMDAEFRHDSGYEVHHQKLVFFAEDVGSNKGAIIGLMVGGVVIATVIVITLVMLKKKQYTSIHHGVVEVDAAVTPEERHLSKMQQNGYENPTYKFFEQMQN

In the case of `[NH2][Pt]([NH2])([Cl])[Cl]` [cDDP, Cisplatin], the IC50 stood at 12.1 ± 0.3 µM in the experiment with A2780-CP cells (A2780-CP cells pre-treated overnight with 25 μM APP ONS, read-out: IC50 of cDDP following APP downregulation); 63.2 ± 1.9 µM in the experiment on A2780-CP cells (A2780-CP cells, no APP downregulation, read-out: IC50 of cDDP); 10.2 ± 0.32 µM in the experiment with A2780 cells.
Consider “-cdkc pagtyvsehc tntslrvcss cpvgtftr- (SEQ ID NO:1) [DR6 peptide]”, for which the “Binding to APP” value on APP is reported as “high affinity”.

The term IC50 denotes the concentration needed to halve the response being measured.
